From patent publication US20090047742A1 (priority 2005, published 2009)

Columns and labels:
[1] = system: iBMK cells; conditions: cited from earlier work
[2] = system: iBMK cells; assay: MTT assay, viability of iBMK cells; format: cell-based, mouse; conditions: for sensitivity to TNF-α-induced cell death (MTT assay): TNF-α/CHX (0.05 μg/ml)
Method: 3-(4,5-dimethylthiazol-2-yl)-2,5-diphenyltetrazolium bromide (MTT) assay to measure the viability of iBMK cells treated with paclitaxel, CHX, or both mouse TNF-α and CHX was performed as previously described (Ioffe, M. L., et al., Prostate 61: 243-247. (2004)).
To test if apoptosis mediated by general translation inhibition was dependent on specific BH3-only proteins, the apoptotic response of puma^−/−, bim^−/−, noxa^−/−, nbk/bik^−/− iBMK cells to translation inhibition was tested with CHX. In addition to W2, D3, X2 or K1 cells, puma^−/−, bim^−/−, noxa^−/− or nbk/bik^−/− cells were treated with increasing concentration of CHX (0.05, 0.5, 1.0, 5.0 and 10.0 μg/ml) for 24 hours to induce translation inhibition and viability was assessed. […] In contrast, when D3, K1 (FIG. 6B) and nbk/bik^−/− (FIG. 6C) cells were treated with CHX, cell viability remained high. […] In contrast, D3 cells were resistant to cell death induced by TNF-α and paclitaxel (FIGS. 6D and E). […] Furthermore, NBK/BIK was not required for TNF-α-mediated apoptosis (FIG. 6D) which signals through tBID (Li, H., et al., Cell 94: 491-501 (1998); Luo, X., et al., Cell 94: 481-490 (1998)), nor was NBK/BIK required for apoptosis induced by taxanes (FIG. 6E) which is dependent on BIM (Bouillet, P., et al., Science 286: 1735-1738 (1999); Tan, T. T., et al., Cancer Cell 7: 227-238. (2005)). These findings support the role for specific BH3-only proteins controlling the response to discrete apoptotic stimuli.

[3] = system: caspase-3, PARP; assay: Western blot of active caspase-3 and PARP in T-Rex-293 lysates; format: cell-based, human
Method: Western blot analysis and immunofluorescence were performed as previously described (Perez, D., and White, E. J. Cell Biol. 141: 1255-1266 (1998); Perez, D., and White, E. Mol. Cell 6: 53-63 (2000)). The term “Western blot” refers to a method for identifying proteins in a complex mixture; proteins are separated electrophoretically in a gel medium; transferred from the gel to a protein binding sheet or membrane; and the sheet or membrane containing the separated proteins exposed to specific antibodies which bind to, locate, and enable visualization of protein(s) of interest. T-Rex-293 (mazF/pcDNA3) and T-Rex-293 (mazF/mazE) cells were harvested at 0, 24, 48 and 72 hr post-treatment with tetracycline or staurosporine by scraping and centrifugation. All cell pellets were lysed in 2× Laemmli buffer. Cell lysates were subjected to electrophoresis on a 15% SDS-PAGE gel and then transferred onto an Immobilon-P membrane (Millipore, Bedford, Mass.). The blot was incubated with following antibody: anti-active caspase-3 rabbit polyclonal antibody (Cell Signaling Technology, Beverly, Mass.), anti-BAX, anti-BAK rabbit polyclonal antibody (NT) (Upstate Biotechnology Inc., Lake Placid, N.Y.), anti-BID goat polyclonal antibody (R&D Systems, Inc, Minneapolis, Minn.), anti-Bim rabbit polyclonal antibody (Alexis Biochemical, San Diego, Calif.), anti-BCL-2 hamster monoclonal antibody (PharMingen, San Diego, Calif.), anti-BCL-XL mouse monoclonal antibody (Trevigen, Gaithersburg, Md.), anti-MCL-1 rabbit polyclonal antibody (Stressgen Biotechnologies, Victoria, British Columbia, Canada), anti-PARP mouse monoclonal antibody (PharMingen, San Diego, Calif.), anti-PUMA rabbit polyclonal antibody (Nelson, D. A., et al., Genes Dev. 18: 2095-2107 (2004)), anti-E1A monoclonal antibody; anti-actin monoclonal antibody (Oncogene Research Products); and anti-Xpress monoclonal antibody (Invitrogen). An antibody directed to human NBK/BIK was generated by expression of a GST-tagged human NBK/BIK fusion protein encoding an N-terminal 78-amino acid region in bacteria and immunization of rabbits (Cocalico). Western Blots were developed with horseradish peroxidase-conjugated secondary antibodies using the ECL system (Amersham-Pharmacia Biotech, Piscataway, N.J.).

[4] = system: T-Rex-293 cells; assay: phase contrast morphology / cytopathic effect; format: cell-based, human; conditions: MazE co-expressed with MazF, T-Rex-293
[5] = system: T-Rex-293 cells; assay: FACS analysis of propidium iodide labeling (sub-G1 peak); format: cell-based, human; conditions: T-Rex-293 (mazF/mazE), MazE co-expressed with MazF, 72 hours of induction
Method: T-Rex-293 (mazF/pcDNA3) cells and T-Rex-293 (mazF/mazE) cells treated with tetracycline for 0, 24, 48 and 72 hr were harvested by trypsinization, pelleted by centrifugation and resuspended in PBS. The cells were fixed with ice-cold 70% ethanol for 30 min and stained with propidium iodide (10 μg/ml) and RNase A (100 μg/ml) overnight. The cells were analyzed on a Becton Dickinson FACSCalibur system (San Jose, Calif.).

[6] = system: iBMK cells; assay: β-galactosidase assay, viability of iBMK cells co-expressing LacZ; format: cell-based, mouse; conditions: MazE transiently co-expressed with MazF in W2 and X2 cells
Method: β-galactosidase assays to determine the viability of iBMK cells co-expressing LacZ and MazF were performed as previously described (Han, J., Sabbatini, P., and White, E. Mol. Cell. Biol. 16: 5857-5864 (1996)). W2, D3, X2 and K1 co-transfected with pcDNA6/His/LacZ and pcDNA4/TO/mazF or pcDNA3 for 48 hr were fixed in 1% glutaraldehyde and then stained with 0.2% X-gal solution at 37° C. for 24 hr. β-Galactosidase positive blue cells and the total number of cells (approximately 200 cells) were independently counted on a 6-cm diameter dish.

[7] = system: human GAPDH and β-actin mRNA; assay: real-time RT-PCR quantification of mRNA levels in T-Rex-293 cells; format: cell-based; conditions: cells expressing both MazE and MazF
Method: Northern blot analysis and real-time PCR (RT-PCR) was preformed as previously described (Zhang, Y., et al., Mol. Cell 12: 913-923 (2003); Cuconati, A., et al., Genes Dev. 17: 2922-2932 (2003)). Total RNA from tetracycline-treated (0, 24, 48 and 72 hr) or untreated (0, 24, 48 and 72 hr) T-Rex-293 (mazF/pcDNA3) and T-Rex-293 (mazF/mazE) cells for were isolated through the use of Trizol Reagent (Gibco, Carlsbad, Calif.). For Northern blot analysis, 10 μg of total RNA from each condition was subjected to formaldehyde-agarose gel electrophoresis followed by transfer onto GeneScreen Plus membrane (NEN Life Science Products, Boston, Mass.). The blot was hybridized with ^32P-labeled human GAPDH or β-actin cDNA. One hundred ng of total RNA was subjected to real time RT-PCR with the Taqman EZ-RT PCR kit (PE Applied Biosystems, Lincoln Centre Drive Foster City, Calif.) using recommended conditions provided by the vendor. […] Reactions were carried out in triplicate and the relative amount of human GAPDH and β-actin mRNA was calculated from the difference in fluorescence signal in the 24-, 48- and 72-hr samples compared with the corresponding 0 hr sample.

[8] = system: T-Rex-293 cells; assay: 35S-methionine metabolic labeling (protein synthesis); format: cell-based, human; conditions: T-Rex-293 (mazF/mazE), Tet-treated
Method: T-Rex-293 (mazF/pcDNA3) and T-Rex-293 (mazF/mazE) cells were incubated for 0, 24 and 48 hr in tetracycline-containing complete DMEM followed by incubation for 1 hr in fresh methionine-free DMEM containing 10 μCi/ml ^35S-methionine. The cells then were washed with PBS twice and lysed in 2× Laemmli buffer. The cell lysate was subjected to SDS-PAGE followed by autoradiography and coomassie blue stain. Signal intensity was measured by Phosphoimager STORM 860 (Molecular Dynamics, Sunnyvale, Calif.).

[9] = system: human GAPDH and β-actin mRNA; assay: Northern blot analysis of cellular mRNA in T-Rex-293 cells; format: cell-based; conditions: co-expression of MazE with MazF, T-Rex-293 (mazF/mazE), throughout time course of induction
Method: Northern blot analysis and real-time PCR (RT-PCR) was preformed as previously described (Zhang, Y., et al., Mol. Cell 12: 913-923 (2003); Cuconati, A., et al., Genes Dev. 17: 2922-2932 (2003)). Total RNA from tetracycline-treated (0, 24, 48 and 72 hr) or untreated (0, 24, 48 and 72 hr) T-Rex-293 (mazF/pcDNA3) and T-Rex-293 (mazF/mazE) cells for were isolated through the use of Trizol Reagent (Gibco, Carlsbad, Calif.). For Northern blot analysis, 10 μg of total RNA from each condition was subjected to formaldehyde-agarose gel electrophoresis followed by transfer onto GeneScreen Plus membrane (NEN Life Science Products, Boston, Mass.). The blot was hybridized with ^32P-labeled human GAPDH or β-actin cDNA. One hundred ng of total RNA was subjected to real time RT-PCR with the Taqman EZ-RT PCR kit (PE Applied Biosystems, Lincoln Centre Drive Foster City, Calif.) using recommended conditions provided by the vendor. Primers to analyze the level of human GAPDH mRNA were obtained from Applied Biosystems, and a probe for GAPDH was supplied with 5′ linkage to the reporter dye 2, 7-dimethoxy-4, 5-dichloro-6-carboxy-fluoroecein (JOE), and 3′ linkage to the quencher 6-carboxy-tetramethylrhodamine (TAMURA). β-actin primer sequences were 5′-[…]-3′ and 5′-[…]-3′. β-actin probe sequence was FAM-5′-[…] TTCC-3′-TAMURA. Reactions were carried out in triplicate and the relative amount of human GAPDH and β-actin mRNA was calculated from the difference in fluorescence signal in the 24-, 48- and 72-hr samples compared with the corresponding 0 hr sample.
To assess cellular mRNA levels, total RNA was isolated from whole cells of Tet-treated or -untreated T-Rex-293 cells and subjected to Northern blot analysis using human GAPDH and β-actin cDNA probes. […] Labeled single-stranded DNA fragments complementary to the specific mRNA being sought then are hybridized to the bound mRNA and the label detected by suitable means. […]

[10] = system: T-Rex-293 cells; assay: trypan blue exclusion viability; format: cell-based, human; conditions: T-Rex-293 (mazF/mazE), Tet-treated
Method: The viability of T-Rex-293 cells was determined by trypan blue exclusion as previously described (Degenhardt, K., et al., J. Biol. Chem. 277: 14127-14134 (2002)). T-Rex-293 (mazF/pcDNA3) and T-Rex-293 (mazF/mazE) cells were cultured for 24 hr before tetracycline treatment and then incubated for 0, 24, 48 and 72 hr at 37° C. in the presence or absence of 10 μg/ml tetracycline. After treatment, cells were collected by centrifugation of the supernatant plus adherent cells, which were harvested by trypsinization. Cells were resuspended in 500 μl of fresh medium containing 0.1% trypan blue solution (Sigma, St. Louis, Mo.) and then counted on a hemocytometer to assess the number of dead blue cells and the total number of cells counted. As a control for apoptotic cell death, T-Rex-293 (mazF/mazE) cells were treated with 1 μM staurosporine (Sigma, St. Louis, Mo.) for same time periods concurrently with tetracycline treatment.

[11] = W2 and three independent nbk/bik−/− iBMK cell lines

Molecule: TNF-α
- TNF-α-induced apoptosis ([1]; D3 iBMK cells): resistant
- apoptosis induction ([1]; W2, X2, and K1 iBMK cells): induces apoptosis
- sensitivity to TNF-α-induced cell death (MTT assay) ([2]; D3 cells): resistant
- sensitivity to TNF-α-induced cell death (MTT assay) [2, 11]: clearly sensitive

Molecule: C[C@@H]1C[C@@H]([C@H](O)CC2CC(=O)NC(=O)C2)C(=O)[C@@H](C)C1 [CHX, cycloheximide]
- cell viability (MTT assay) ([2]; D3, K1 and nbk/bik−/− cells, CHX 0.05-10.0 μg/ml for 24 hours): remained high
- survival (MTT assay) ([2]; W2, X2, puma−/−, bim−/− and noxa−/− cells, CHX 0.05-10.0 μg/ml for 24 hours): decreased in a dose-dependent manner

Molecule: CN[C@@H]1C[C@H]2O[C@@](C)([C@@H]1OC)n1c3ccccc3c3c4c(c5c6ccccc6n2c5c31)C(=O)NC4 [staurosporine, reference compound]
- active caspase-3 (Western blot) ([3]; extracts from T-Rex-293 (mazF/mazE) cells treated with 1 μM staurosporine): detected

Molecule: CC(=O)O[C@H]1C(=O)[C@@]2(C)[C@H]([C@H](OC(=O)c3ccccc3)[C@]3(O)C[C@H](OC(=O)[C@H](O)[C@@H](NC(=O)c4ccccc4)c4ccccc4)C(C)=C1C3(C)C)[C@]1(OC(C)=O)CO[C@@H]1C[C@@H]2O [paclitaxel]
- sensitivity to paclitaxel-induced cell death (MTT assay) ([2]; D3 cells): resistant
- sensitivity to paclitaxel-induced cell death (MTT assay) [2, 11]: clearly sensitive

B1: MazE: labile E. coli antitoxin that antagonizes the endoribonuclease activity of MazF; expressed from pcDNA3/mazE together with MazF (protein, UniProt P0AE72 1-82, looked up)
Antitoxin MazE: MIHSSVKRWGNSPAVRIPATLMQALNLNIDDEVKIDLVDGKLIIEPVRKEPVFTLAELVNDITPENLHENIDWGEPKDKEVW
- cell number and morphology [4]: maintained
- sub-G1 peak [5]: 11.4%
- effect of MazE on MazF-induced cell death (β-galactosidase assay) [6]: significantly repressed MazF-induced cell death
- activation of caspase-3 (Western blot) ([3]; co-expression of MazE with MazF, Tet-treated T-Rex-293 (mazF/mazE)): inhibited
- cleaved PARP (Western blot) ([3]; extracts of cells expressing both MazE and MazF): not present
- levels of both GAPDH and β-actin mRNAs (real-time RT-PCR) [7]: constant levels
- effect of MazE co-expression on MazF inhibition of protein synthesis (35S-methionine incorporation) [8]: clearly prevented the inhibitory effect of MazF
- levels of both GAPDH and β-actin mRNAs (Northern blot) [9]: maintained
- effect of co-expression of MazE with MazF on viability (trypan blue exclusion) [10]: conferred resistance to MazF-mediated killing
